Measurements taken from patent US8822377B2, “Herbicidal compositions comprising topramezone and pinoxaden” (BASF SE, priority 2011, dated 2014).

Legend:
[1] = tested on: TRZAW (winter wheat) Cubus; experiment: Greenhouse post-emergence crop damage rating, winter wheat; conditions: topramezone 12 g a.i./ha, 0=no damage, 100=complete destruction
Description: (§1) The culture containers used were plastic pots containing loamy sand with approximately 3.0% of humus as substrate. The seeds of the test plants were sown separately for each species.
(§2) In all use examples, plants were grown in a greenhouse environment.
(§3) To this end, the test plants were either sown directly and grown in the same containers, or they were first grown separately as seedlings and transplanted into the test containers a few days prior to treatment.
(§4) Depending on the species, the plants were kept at 10-25° C. and 20-35° C., respectively. The test period extended over 1 to 4 weeks. During this time, the plants were tended and their response to the individual treatments was evaluated.
(§5) Topramezone was used as a commercial suspension concentrate (Clio® of BASF SE) having an active ingredient concentration of 336 g/l.
(§6) The evaluation for the damage caused by the chemical compositions was carried out using a scale from 0 to 100%, compared to the untreated control plants. Here, 0 means no damage and 100 means complete destruction of the plants.

TRZAS Taifun = experiment: Greenhouse post-emergence crop damage rating, wheat TRZAS; conditions: topramezone 12 g a.i./ha
Description: as §1, §2, §3, §4, §5, §6

[2] = tested on: HORVW (winter barley) Highlight; experiment: Greenhouse post-emergence crop damage rating, winter barley; conditions: topramezone 12 g a.i./ha
Description: as §1, §2, §3, §4, §5, §6

GALAP (cleaver) = experiment: Greenhouse post-emergence herbicidal activity against cleaver; format: in vivo; conditions: Galium aparine, 648 h, topramezone 12 g a.i./ha, read-out: Herbicidal activity (%) at 27 DAT Observed GALAP GS22
Source text: (§7) The test period extended over 1 to 4 weeks.
(§8) 22 ff. E=X+Y−(X·Y/100) where • X=effect in percent using herbicide A at an application rate a; • Y=effect in percent using pinoxaden (herbicide B) at application rate b or a combination of pinoxaden and safener C at application rates b and c; • E=expected effect (in %) of A+B at application rates a+b or of A+B+C at application rates a+b+c.
(§9) The value E corresponds to the effect (plant damage or injury) which is to be expected if the activity of the individual compounds is just additive. If the observed effect is higher than the value E calculated according to Colby, a synergistic effect is present.

VERPE (field speedwell) = experiment: Greenhouse post-emergence herbicidal activity against field speedwell; format: in vivo; conditions: Veronica persica, 648 h, topramezone 12 g a.i./ha, read-out: Herbicidal activity (%) at 27 DAT Observed VERPE GS22
Source text: as §7, §8, §9

For `Cc1c(C(=O)c2cnn(C)c2O)ccc(S(C)(=O)=O)c1C1=NOCC1` [Topramezone, [3-(4,5-dihydro-1,2-oxazol-3-yl)-4-mesyl-o-tolyl](5-hydroxy-1-methylpyrazol-4-yl)methanone], the “Herbicidal activity (%) at 27 DAT TRZAW Cubus GS12” value [1] was 20%, the “Herbicidal activity (%) at 27 DAT TRZAS Taifun GS11” value (TRZAS Taifun) was 30% and the “Herbicidal activity (%) at 27 DAT HORVW Highlight GS11” value [2] was 20%. It also gave an inhibition at 12 g/ha (GALAP (cleaver)) of 90% and an inhibition at 12 g/ha (VERPE (field speedwell)) of 75%.
